Results on 1 substance are retold here after patent publication US10495571B2 (priority 2014, dated 2019).

The conditions of this assay: CMD-3D layer without HSA, PBS buffer, drug cM1 0.00-50 μM, DMSO 0.5%, 5%.

Description: The functional layer AF1 of the second sample region REG2 was otherwise similar to the functional layer AF1 of the first sample region REG1, except that the functional layer AF1 of the first sample region REG1 comprised HSA. […] B0b denotes the input beam impinging on the second sample region REG2, and B1b denotes the reflected beam reflected from the second sample region REG2. ZV2 denotes the sample volume of the second sample region REG2.
Prior to the second test, the functional layer AF1 of the second sample region was formed by a method, which comprised: • attaching a layer of CMD-3D to the metal layer 120 of the sensor, • washing the layer of CMD-3D with an aqueous solution, which comprised 2M NaCl and 10 mM NaOH, • activating the layer of CMD-3D with an activation solution, which comprised EDC and NHS. • treating the layer of CMD-3D with an aqueous solution, which comprised MES (the bulk concentration of MES was 5 mM and pH 5.0), • deactivating the functional layer AF1 by exposing it to an aqueous solution, which comprised ethanolamine (pH 8.0). • washing the functional layer AF1 with an aqueous solution, which comprised 50 mM NaOH. […]
The curve ϕAUX,CH2(t) may be calculated e.g. by using a modified equation (7h), where the parameter C may be determined by using a modified equation (7d), and the parameter D may be determined by using a modified equation (7i). […]

For indomethacine, the “average value of the auxiliary angle ϕAUX,CH2(t) of the second sample region (reference, no HSA)” value is reported as “substantially independent of the bulk concentration cM1”.
